The subject of data set [1] is endogenous lipid amide levels (anandamide, PEA, OEA, 2-AG, arachidonic acid). To be noted: for effect on endogenous levels of 2-AG / effect on endogenous levels of arachidonic acid / effect on endogenous levels of key lipid amides (anandamide, PEA) / site of effect on lipid levels (brain vs liver): 30 mg/kg i.p., single mouse; for brain lipid amide levels, oral versus intraperitoneal dosing: p.o. 50 mg/kg vs i.p. 30 mg/kg, 3 mice per group.

The subject of data set [2] is chronic constriction injury (CCI) neuropathic pain. The experiment in a line: CCI acetone-induced cold allodynia. The format is in vivo, mice. Particulars: 50 mg/kg p.o.
Another data set concerns the target T1, rat FAAH (Rattus norvegicus, UniProt P97612).
T1 sequence (P97612 30-579 limits assumed): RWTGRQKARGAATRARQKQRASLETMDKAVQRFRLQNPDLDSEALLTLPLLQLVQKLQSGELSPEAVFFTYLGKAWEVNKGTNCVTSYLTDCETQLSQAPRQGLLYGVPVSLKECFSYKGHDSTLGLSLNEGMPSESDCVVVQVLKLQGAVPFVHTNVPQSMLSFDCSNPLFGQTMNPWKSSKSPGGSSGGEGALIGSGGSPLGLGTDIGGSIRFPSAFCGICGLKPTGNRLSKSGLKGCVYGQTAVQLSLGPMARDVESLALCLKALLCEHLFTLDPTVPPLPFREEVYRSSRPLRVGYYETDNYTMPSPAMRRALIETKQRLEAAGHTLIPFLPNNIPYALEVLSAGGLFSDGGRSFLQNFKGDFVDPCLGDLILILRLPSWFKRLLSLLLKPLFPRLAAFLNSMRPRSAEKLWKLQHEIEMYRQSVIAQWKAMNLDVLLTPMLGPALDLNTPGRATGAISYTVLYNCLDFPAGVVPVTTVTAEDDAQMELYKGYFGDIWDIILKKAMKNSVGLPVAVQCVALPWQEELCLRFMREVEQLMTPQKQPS
The format is biochemical.

The format of data set [3] is in vivo. To be noted: 50 mg/kg oral, data not shown.
Data set [4] relates to chronic constriction injury (CCI) neuropathic pain. The experiment in a line: CCI mechanical allodynia. It is filed as in vivo, mice. Particulars: 50 mg/kg p.o.
The next data set has as its system human FAAH. The experiment in a line: FAAH inhibition, human FAAH from transfected COS-7 cells. The format is biochemical. To be noted: active (S)-enantiomers; hFAAH vs rFAAH.
Another data set deals with acute thermal pain. It is filed as in vivo, mice. Particulars: i.v. administration.
A short description of data set [5]: Rat or human liver microsome stability. Particulars: rat, human, microsomes. (In general: Liver microsomes are a subcellular fraction often used to study metabolism.)
Data set [6] deals with human ether-a-go-go related gene (hERG). Particulars: background statement; cited from earlier work.
Data set [7] deals with cannabinoid (CB1 or CB2) or vanilloid receptors. To be noted: background statement; cited from earlier work.
For data set [8] the following is noted: in vivo; cited from earlier work.
Data set [9] relates to common P450 metabolism enzymes. To be noted: background statement; cited from earlier work.
The test system of another data set is FAAH knockout mice. To be noted: cited from earlier work.

A word on the half-life: it is how long it takes for the measured level to halve.

Consider `O=C(c1ncc(-c2ccccn2)o1)C1CCc2cc(Oc3ccccc3)ccc2C1` (stereo not shown) [Compound 12, (6-Phenoxy-1,2,3,4-tetrahydronaphthalen-2-yl)(5-(pyridin-2-yl)oxazol-2-yl)methanone], for which, in data set [1] (1 h), the “effect on endogenous levels of 2-AG” value was “without impacting”; the “effect on endogenous levels of arachidonic acid” value is “minimal impact”; the “effect on endogenous levels of key lipid amides (anandamide, PEA)” value is reported as “increased”; the “site of effect on lipid levels (brain vs liver)” value is “observed both in the brain (CNS) and liver (peripheral)”. The “time of peak brain anandamide levels” value in data set [1] (50 mg/kg p.o.) lay within 1.5 to 3 h. The “duration of elevation of brain N-acylethanolamines” value in data set [1] (50 mg/kg p.o., time course up to 9 h) is no less than 9 h. Also, in [1], the “brain lipid amide levels, oral versus intraperitoneal dosing” value was “matched and even improved on the results observed with i.p. administration”. Also, the “increase in brain levels of PEA and OEA” value in data set [1] (p.o. 10, 25 and 50 mg/kg, 1 h) is reported as 5.5–7.8 fold. Besides, the “increase in brain anandamide levels” value in data set [1] (p.o. 25–50 mg/kg, 1 h) is recorded as 12–13 fold. In addition, in data set [2], the “cold allodynia, control paws” value is given as “no effect”; the “cold allodynia, paws ipsilateral to CCI surgery” value is given as “significantly attenuated”; the “duration of effect on cold allodynia” value is recorded as greater than 9 h. The “mode of inhibition (Lineweaver–Burk analysis)” value on rat FAAH was “reversible, competitive inhibitors”. Besides, in data set [3], the cannabimimetic side effects result is “did not produce catalepsy, hypothermia, or hypomotility”. Besides, in data set [4], the “duration of effect on mechanical allodynia” value is greater than 6 h; the “mechanical allodynia, control paws” value is recorded as “no effect”; the “mechanical allodynia, paws ipsilateral to CCI surgery” value was “significantly attenuated”. Besides, the “activity against human versus rat FAAH” value with human FAAH is “no significant distinction”.

In the case of `O=C(O)c1cccc(-c2cnc(C(=O)C3CCc4cc(Oc5ccccc5)ccc4C3)o2)n1` (stereo not shown) [Compound 14, 6-(2-(6-Phenoxy-1,2,3,4-tetrahydronaphthalene-2-carbonyl)oxazol-5-yl)picolinic Acid], in the data set with acute thermal pain, the duration of effect is listed as 150 min and the “time of maximal effect” value lay in the range of 30 to 60 min. The “maximal antinociceptive effect (efficacy)” value in the data set with acute thermal pain (tail flick 52 °C) was “same maximal effect (efficacy) observed with morphine”. For the same compound, in data set [1] (1 h), the “site of effect on lipid levels (brain vs liver)” value is “principally seen peripherally (liver)”. The “brain lipid amide levels, oral versus intraperitoneal dosing” value in data set [1] was “matched and even improved on the results observed with i.p. administration”. For the same compound, at rat FAAH, the “mode of inhibition (Lineweaver–Burk analysis)” value is given as “reversible, competitive inhibitors”. Moreover, the “activity against human versus rat FAAH” value with human FAAH was 4 fold.

`O=C(c1ncc(-c2ccccn2)o1)C1Cc2ccc(Oc3ccccc3)cc2C1` (stereo not shown) [Compound 27]: in [1] (1 h), the “effect on endogenous levels of 2-AG” value was “without impacting”; the “effect on endogenous levels of arachidonic acid” value was “minimal impact”; the “effect on endogenous levels of key lipid amides (anandamide, PEA)” value is “increased”.

`O=C(c1ncc(-c2ccccn2)o1)C1CCc2cc(OCc3ccccc3)ccc2C1` (stereo not shown) [Compound 18] showed a half-life in [5] of 12 to 15 min.

In the case of `O=C(CCCCCCc1ccccc1)c1ncc(-c2ccccn2)o1` [Compound 2], in data set [6], the “inhibition of hERG” value is given as “does not significantly inhibit”. Besides, the “binding to cannabinoid (CB1 or CB2) or vanilloid receptors” value in data set [7] is on record as “does not bind”. Besides, the “time to establish ketone/alcohol steady state equilibrium” value in data set [8] was no more than 15 min. Besides, the “inhibition of common P450 metabolism enzymes” value in data set [9] was “does not significantly inhibit”. Besides, the “activity against human versus rat FAAH” value in the data set with human FAAH was “no significant distinction”. The compound also yielded a half-life in data set [5] of 2 to 4 min. In the data set on FAAH knockout mice, the “antinociception in FAAH knockout mice” value is given as “does not produce antinociception”.

With `CN1CC[C@]23c4c5ccc(O)c4O[C@H]2[C@@H](O)C=C[C@H]3[C@H]1C5` [morphine, reference compound], the duration of effect with acute thermal pain came out at 150 min.

(Values after publication PMC3085948 (Journal of medicinal chemistry, 2011).)
